Reference: patent publication US9492428B2, “Compounds, compositions, pharmaceutical compositions, and methods of use” (University of Louisville Research Foundation, Inc., priority 2011, dated 2016)
≈ marks a conversion by molar mass, not a printed value.

Legend:
[1] = tested on: DU145 cells; experiment: MTT assay (cytotoxicity / cell proliferation) in DU145; type: cell-based, human
Procedure: (§1) FIG. 4. Bioassay of compound I-1, compound I-2, and compound I-3. SPA14-3-2 is pure compound I-2. SPA14-3-3 is pure compound I-3. SPA14-3-4 is pure compound I-1. MTT assays using compound I-1, compound I-2, and compound I-3 against DU145 and RWPE-1 cells lines.
FIG. 8. Cell proliferation assay. (A) DU145 or PC3 prostate cancer were plated at a density of 1,500 cells per well in 96-well plates and incubated 18 hours at 37° C. to allow adherence. They were untreated or treated by addition of different concentrations of compound I-1 (which were added directly to the medium) or vehicle (DMSO), and proliferation was measured using a 3-(4,5-dimethylthiazol-2-yl)-2,5-diphenyltetrazolium bromide MTT assay after 3 days of treatment. Points, mean of triplicate normalized samples to vehicle sample; bars, SE. (B) GI50 after 3 days of treatment. (C) Prostate cancer cells (DU145 or PC3) or a non-malignant epithelial cells (RWPE-1) were plated at a density of 1,000 cells per well in 96-well plates and incubated 18 hours at 37° C. to allow adherence. They were untreated or treated by addition of different concentrations of compound I-1 (added directly to the medium) or vehicle (DMSO), and proliferation was by MTT assay after 5 days of treatment. Points, mean of triplicate normalized samples to vehicle sample; bars, SE.
(§2) Isolation, NMR, and X-ray crystallographic analyses. Leaves, stems, and few fruits of Physalis angulate L (Solanaceae) were collected in Rio Domingusa. Kuith/Barranquita, Amazonas Department, Northeastern Peru, and identified by the team led by Walter Lewis (collection voucher 18597, Ext. 1159). Dried and grounded material (46 g) was extracted with ethanol (1 L, 95%) for 7 days. The evaporated crude extract (6.26 g) was denoted SPA. An aliquot (1.5 g) of SPA was partitioned between dichloromethane (40 mL) and water (40 mL), affording two fractions: organic (SPA1, 500 mg) and aqueous (SPA2, 600 mg). All MTT assays were performed as described in Bates et al. “G-Rich Oligonucleotides for Cancer Treatment” Chapter 21 of Methods in Molecular Biology, Gene Therapy of Cancer, Wolfgang Walther and Ulrike S. Stein (eds.), Vol. 542, 2009, Humana Press. […] SPA14-3 (30 mg) was treated on an HPLC using a reverse phase C18 column eluted in gradient mode of methanol and water (from 80% methanol to 100% methanol) and detected at 254 nm, yielding SPA14-3-1 (0 mg), SPA14-3-2 (1.2 mg of pure compound I-2), SPA14-3-3 (4.1 mg of pure compound I-3), and SPA14-3-4 (18 mg of pure compound I-1).
General Experimental Procedure. Compound I-1 was isolated as described in Example Set 1, above. For samples of compound I-1 used in Example Set 2, HPLC and NMR indicated a purity of at least 95%. All experiments described in Example Set 2 were repeated at least two or three times. […]

[2] = tested on: RWPE-1 cells; experiment: MTT assay (cytotoxicity) in RWPE-1; type: cell-based; settings: Homo sapiens, FIG. 4, read-out: GI50 against RWPE-1
Description: as §1, §2
General Experimental Procedure. Compound I-1 was isolated as described in Example Set 1, above. For samples of compound I-1 used in Example Set 2, HPLC and NMR indicated a purity of at least 95%. All experiments described in Example Set 2 were repeated at least two or three times. All MTT assays were performed according to Bates et al. “G-Rich Oligonucleotides for Cancer Treatment” Chapter 21 of Methods in Molecular Biology, Gene Therapy of Cancer, Wolfgang Walther and Ulrike S. Stein (eds.), Vol. 542, 2009, Humana Press.

[3] = tested on: DU145 cells; experiment: Annexin V-FITC / propidium iodide flow cytometry (apoptosis); type: cell-based, human
Procedure: FIG. 9. Effect of compound I-1 at 5 μM on cell cycle and apoptosis. Cells were then harvested by trypsinization. (A) For flow cytometric analysis of cell cycle parameters, cells were fixed, and stained with propidium iodide. Each histogram indicates the percent of cells in G1, S, and G2/M phases of the cell cycle. Data were gated to exclude apoptotic cells for these calculations. (B) For apoptosis detection, cells were incubated with FITC-conjugated Annexin V and propidium iodide. Flow cytometric analysis was performed and the histogram for each sample was split into four quadrants to indicate: viable cells (lower left quadrant), apoptotic cells (lower right quadrant), necrotic cells (upper left quadrant), and necrotic/late apoptotic cells (upper right quadrant).
FIG. 13. Assays to detect apoptosis in DU145 cells. Prostate cancer cells were left untreated (−) or treated with 10 μM compound I-1 or with vehicle (DMSO) for the time indicated in the figure. (A) After treatment, cells were harvest by trypsinization, washed with PBS, and then incubated with FITC-conjugated Annexin V and propidium iodide. Flow cytometric analysis was performed. The histogram for each sample was split into four quadrants to indicate: viable cells (lower left quadrant), apoptotic cells (lower right quadrant), necrotic cells (upper left quadrant), and necrotic/late apoptotic cells (upper right quadrant). (B) After treatment, cells were lysed and total lysates were analyzed for cellular apoptotic markers by immunoblotting using anti-[…] or antibodies specific to the activated form of Caspase-3 (cleaved Caspase-3). Anti-GAPDH-1 antibody was used as loading control. (C) Some cells were harvested by trypsinization, washed with PBS, and total DNA was extracted then analyzed on a 1.8% agarose gel. M indicates DNA size marker (base pairs).
Flow cytometric assays of cell cycle and cell death. Cells in fresh complete medium were plated (2×10^5 per well) into six-well plates for 18 h. After complete adhesion, cells were treated as indicated in the figures and harvested by trypsinization. For cell cycle distribution, cells were fixed, and stained with propidium iodide using the Cycle Test Plus kit (Becton Dickinson). For cell death detection, cells were stained with Annexin-V-FITC and propidium iodide using the Apoptosis Detection Kit (BD Biosciences), according to the manufacturer's instructions. Cells were then analyzed by flow cytometry using a FACScalibur cytometer (BD Biosciences, Mountain View, Calif.) and FlowJo program (Tree Star, Inc., Ashland, Oreg.).
Compound I-1 promotes cell death by apoptosis. Because prolonged cell cycle arrest can cause induction of cell death, we next investigated the viability of prostate cancer cells treated with compound I-1. To begin, we used the trypan blue exclusion assay, which is based on the principle that live cells will exclude membrane-impermeable dyes such as trypan blue, whereas trypan blue will get inside the dead cells and stain them. […] To determine whether apoptosis (programmed cell death) is the cause of cell death induced by compound I-1, we examined the cells for biochemical and morphological markers of apoptosis. Cells undergoing apoptosis specifically translocate the membrane phospholipid phosphatidylserine (PS) from the inner face of the plasma membrane to the cell surface; therefore, apoptotic cells can be identified by the presence of PS on the cell surface. Detection of PS is achieved by staining with a fluorescent conjugate of Annexin V, a protein that has a high affinity for PS, followed by flow cytometry analysis. Cells are stained in parallel with propidium iodide (PI), which can only enter the cell when the plasma membrane is damaged. This allows early apoptotic cells (positive for PS, but negative for PI) to be distinguished from late apoptotic and necrotic cells (positive for both PS and PI).

C[C@@H]1CC[C@H]2C3C(O[C@]4([C@]5(O)CC6(C)C(=O)OC5C[C@@]6(C)O)CC[C@@]31O4)[C@H]1O[C@]13CC=CC(=O)[C@]23C (stereo partly shown) [I-1]
GI50 ([1]; Homo sapiens, DU-145, MTT assay, FIG. 4, read-out: GI50 against DU145): ~1.5 µg/mL (≈ 3 µM) | concentration of maximum antiproliferative activity ([1]; after three days of treatment): 10 µM | GI50 [2]: ~1.2 µg/mL (≈ 2.4 µM) | apoptotic population ([3]; 5 μM, 24 h): 5.2% | apoptotic population ([3]; 5 μM, 48 h): 9.2% | apoptotic population ([3]; 5 μM, 72 h): 11.5% | apoptotic population ([3]; 10 μM, 24 h): 7.4% | apoptotic cell population ([3]; 10 μM, 48 h): 32.3% | apoptotic cell population ([3]; 10 μM, 72 h): 46.4% | population of late apoptotic/necrotic cells ([3]; 10 μM, 72 h): 28.4%
